Assay results published in ChEMBL document CHEMBL1201862, “PubChem BioAssay data set” (2004).
Calls of active or inactive are those of the source. Rule as the data show it, for most assays here: actives have a measured EC50 and inactives only a lower limit.

Test system: Streptococcus
Assay: Group A Streptococcus viability loss, dose response, counter-screen for streptokinase expression inhibitor project, luminescence, BacTiterGlo (AID 1915);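 also: potency for reduction of bacterial viability or growth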
Format: functional, organism-based
Conditions: not given

SMILES | EC50
Cn1nc(-c2ccccc2)c(CSc2cccc(Cl)c2)c1Cl | > 150 µM (not active)
COc1ccc(C(=O)CSc2nc(-c3ccccn3)nc(C)c2Cl)cc1 | 36.4 µM (active)
O=C(CC1CCCCC1)c1c(O)c2ccccc2oc1=O | 55 µM (active)
C/N=C1\S/C(=C\c2ccc(N3CCOCC3)c(F)c2)C(=O)N1C | 12.2 µM (active)
SC1=NC[C@H](CC2CCCCC2)N1CC1CCCCC1 | 19.6 µM (active)
O=C(NC1CCCCC1)NC1C2CC3CC(C2)CC1C3 (stereo not given) | > 150 µM (not active)
COc1ccccc1OCC(=O)NNC(=S)NC(=O)c1ccco1 | 41.4 µM (active)
Fc1ccccc1CNc1cc(Cl)cc(Cl)c1 | 17.8 µM (active)
S=C(NCc1ccco1)N1CCN(c2nc(-c3ccc(Cl)cc3)cs2)CC1 | 32.1 µM (active)

Test system: not listed separately
Assay: HEp-2 cell cytotoxicity, dose response, cytotoxicity control for RSV inhibitor project, HTS (AID 2410)
Format: functional
Conditions: human respiratory syncytial virus

SMILES | CC50
CCOC(=O)C1=C(C)N=c2s/c(=C/c3ccc(OCC(=O)O)cc3)c(=O)n2C1c1ccc(F)cc1 (stereo not given) | 39.8 µM (active)
CCn1nc(C)c(CN2CCc3c([nH]c4ccccc34)C2C(C)(C)C)c1C (stereo not given) | > 50 µM (active)
COC(=O)C1=C(C)N(c2cc(C)cc(C)c2)/C(=C/c2ccc(O)cc2)C1=O | 18.4 µM (active)
COc1cccc(N(C(=O)c2snc(C(N)=O)c2N)C(C(=O)NCc2ccccc2)c2ccc(O)cc2)c1 (stereo not given) | > 50 µM (active)
NC(=O)NNC1=Nc2cccc3cccc1c23 | > 50 µM (active)
CCNC(=O)Nc1ccccc1C(=O)OC | 27.7 µM (active)
O=C(Nc1ccc(N2CCOCC2)cc1)c1cc2c(s1)CCCC2 | > 50 µM (active)

Target: T1, Corticotropin-releasing factor receptor 2/Corticotropin-releasing factor-binding protein (Homo sapiens, UniProt P24387+Q13324)
T1 sequence (Q13324 whole entry): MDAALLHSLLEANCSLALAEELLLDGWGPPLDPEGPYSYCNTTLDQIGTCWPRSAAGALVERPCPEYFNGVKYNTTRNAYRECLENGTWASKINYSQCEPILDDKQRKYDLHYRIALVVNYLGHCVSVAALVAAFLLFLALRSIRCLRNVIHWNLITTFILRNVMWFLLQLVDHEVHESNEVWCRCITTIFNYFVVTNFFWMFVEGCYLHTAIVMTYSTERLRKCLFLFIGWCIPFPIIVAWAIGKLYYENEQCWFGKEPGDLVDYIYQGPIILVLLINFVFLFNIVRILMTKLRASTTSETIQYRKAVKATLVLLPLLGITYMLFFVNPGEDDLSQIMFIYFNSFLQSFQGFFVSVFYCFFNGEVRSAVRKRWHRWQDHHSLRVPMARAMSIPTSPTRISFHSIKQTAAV
T1 sequence (P24387 whole entry): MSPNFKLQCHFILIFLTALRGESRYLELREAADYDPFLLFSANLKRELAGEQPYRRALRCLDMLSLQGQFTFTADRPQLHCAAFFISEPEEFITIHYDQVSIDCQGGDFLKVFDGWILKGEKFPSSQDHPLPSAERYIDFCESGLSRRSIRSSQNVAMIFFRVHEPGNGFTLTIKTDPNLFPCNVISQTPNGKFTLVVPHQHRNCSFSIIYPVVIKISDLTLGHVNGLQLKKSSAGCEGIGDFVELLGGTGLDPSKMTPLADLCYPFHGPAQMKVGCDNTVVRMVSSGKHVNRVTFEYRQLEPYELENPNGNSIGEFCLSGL
Assay: activators of CRF receptor 2 with binding protein – uHTS hits, confirmation (AID 602473)
Format: functional
Conditions: read-out: EC50_Mean

SMILES | EC50
O=C(CC1CCCCC1)c1c(O)c2ccccc2oc1=O | 7.06 µM (active)

Target: T2, Streptokinase A (Streptococcus pyogenes serotype M1, UniProt P10520)
T2 sequence (P10520 whole entry): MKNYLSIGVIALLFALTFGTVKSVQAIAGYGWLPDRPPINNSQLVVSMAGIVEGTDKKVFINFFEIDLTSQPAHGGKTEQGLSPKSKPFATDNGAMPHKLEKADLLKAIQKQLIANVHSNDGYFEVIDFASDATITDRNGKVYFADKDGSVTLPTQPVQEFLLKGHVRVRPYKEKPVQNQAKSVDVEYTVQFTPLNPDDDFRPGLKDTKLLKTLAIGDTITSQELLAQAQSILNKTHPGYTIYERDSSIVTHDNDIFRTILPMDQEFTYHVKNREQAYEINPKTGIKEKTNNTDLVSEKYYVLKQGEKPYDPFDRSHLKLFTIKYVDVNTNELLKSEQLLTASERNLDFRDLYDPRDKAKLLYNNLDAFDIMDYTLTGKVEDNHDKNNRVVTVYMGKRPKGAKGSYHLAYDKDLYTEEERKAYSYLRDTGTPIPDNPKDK
Assay: S. pyogenes streptokinase expression inhibitors, potency, dose response, plasminogen activation absorbance, OD405 (AID 1914);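 also: secreted streptokinase activity via plasminogen activation per viability signal from cell pellet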
Format: functional, Streptococcus pyogenes M1 GAS
Conditions: not given

SMILES | EC50
Cn1nc(-c2ccccc2)c(CSc2cccc(Cl)c2)c1Cl | 19.8 µM (active)
COc1ccc(C(=O)CSc2nc(-c3ccccn3)nc(C)c2Cl)cc1 | > 150 µM (not active)
O=C(CC1CCCCC1)c1c(O)c2ccccc2oc1=O | > 150 µM (not active)
C/N=C1\S/C(=C\c2ccc(N3CCOCC3)c(F)c2)C(=O)N1C | > 150 µM (not active)
SC1=NC[C@H](CC2CCCCC2)N1CC1CCCCC1 | 25.4 µM (active)
O=C(NC1CCCCC1)NC1C2CC3CC(C2)CC1C3 (stereo not given) | > 150 µM (not active)
COC(=O)c1cccc(NC(=S)NCc2ccc(Cl)cc2)c1 | > 150 µM (not active)
COc1ccccc1OCC(=O)NNC(=S)NC(=O)c1ccco1 | > 150 µM (not active)
Fc1ccccc1CNc1cc(Cl)cc(Cl)c1 | > 150 µM (not active)
S=C(NCc1ccco1)N1CCN(c2nc(-c3ccc(Cl)cc3)cs2)CC1 | 36.4 µM (active)

Test system: Streptococcus sp. 'group A'
Assay: growth inhibition of control SK(-) GAS strain, dose response, counter-screen for streptokinase expression inhibitor project, luminescence, kanamycin, BacTiterGlo, confirmation (AID 1900)
Format: functional, organism-based
Conditions: not given

SMILES | EC50
COc1ccc(C(=O)CSc2nc(-c3ccccn3)nc(C)c2Cl)cc1 | 7.92 µM (active)
O=C(CC1CCCCC1)c1c(O)c2ccccc2oc1=O | 3.42 µM (active)
C/N=C1\S/C(=C\c2ccc(N3CCOCC3)c(F)c2)C(=O)N1C | 5.33 µM (active)
SC1=NC[C@H](CC2CCCCC2)N1CC1CCCCC1 | 12.6 µM (active)
O=C(NC1CCCCC1)NC1C2CC3CC(C2)CC1C3 (stereo not given) | > 150 µM (not active)
COc1ccccc1OCC(=O)NNC(=S)NC(=O)c1ccco1 | 2.81 µM (active)
Fc1ccccc1CNc1cc(Cl)cc(Cl)c1 | 9.65 µM (active)
S=C(NCc1ccco1)N1CCN(c2nc(-c3ccc(Cl)cc3)cs2)CC1 | 9.38 µM (active)
